According to ChEMBL document CHEMBL3045835, “Comparative study of conventional and microwave-assisted synthesis of some Schiff bases and their potential as antimicrobial agents” (2012):
≈ marks a conversion by molar mass, not a printed value.

How the values were obtained:
Assay type in all cases: functional
Pseudomonas aeruginosa [1] = experiment: Antibacterial activity against Pseudomonas aeruginosa MTCC 424 at 500 ug/ml after 18 hr by cup-plate method; conditions: MTCC 424, 18 h, read-out: DIZ
Pseudomonas aeruginosa [2] = experiment: Antibacterial activity against Pseudomonas aeruginosa MTCC 424 at 200 ug/ml after 18 hr by cup-plate method; conditions: MTCC 424, 18 h, read-out: DIZ
Pseudomonas aeruginosa [3] = experiment: Antibacterial activity against Pseudomonas aeruginosa MTCC 424 at 100 ug/ml after 18 hr by cup-plate method; conditions: MTCC 424, 18 h, read-out: DIZ
Micrococcus luteus [4] = experiment: Antibacterial activity against Micrococcus luteus MTCC 1538 at 1500 ug/ml after 18 hr by cup-plate method; conditions: MTCC 1538, 18 h, read-out: DIZ
Micrococcus luteus [5] = experiment: Antibacterial activity against Micrococcus luteus MTCC 1538 at 1000 ug/ml after 18 hr by cup-plate method; conditions: MTCC 1538, 18 h, read-out: DIZ
Micrococcus luteus [6] = experiment: Antibacterial activity against Micrococcus luteus MTCC 1538 at 500 ug/ml after 18 hr by cup-plate method; conditions: MTCC 1538, 18 h, read-out: DIZ
Micrococcus luteus [7] = experiment: Antibacterial activity against Micrococcus luteus MTCC 1538 at 200 ug/ml after 18 hr by cup-plate method; conditions: MTCC 1538, 18 h, read-out: DIZ
Micrococcus luteus [8] = experiment: Antibacterial activity against Micrococcus luteus MTCC 1538 at 100 ug/ml after 18 hr by cup-plate method; conditions: MTCC 1538, 18 h, read-out: DIZ
Bacillus pumilus [9] = experiment: Antibacterial activity against Bacillus pumilus MTCC 1456 at 1500 ug/ml after 18 hr by cup-plate method; conditions: MTCC 1456, 18 h, read-out: DIZ
Bacillus pumilus [10] = experiment: Antibacterial activity against Bacillus pumilus MTCC 1456 at 1000 ug/ml after 18 hr by cup-plate method; conditions: MTCC 1456, 18 h, read-out: DIZ
Bacillus pumilus [11] = experiment: Antibacterial activity against Bacillus pumilus MTCC 1456 at 500 ug/ml after 18 hr by cup-plate method; conditions: MTCC 1456, 18 h, read-out: DIZ
Bacillus pumilus [12] = experiment: Antibacterial activity against Bacillus pumilus MTCC 1456 at 200 ug/ml after 18 hr by cup-plate method; conditions: MTCC 1456, 18 h, read-out: DIZ
Bacillus pumilus [13] = experiment: Antibacterial activity against Bacillus pumilus MTCC 1456 at 100 ug/ml after 18 hr by cup-plate method; conditions: MTCC 1456, 18 h, read-out: DIZ
Bacillus subtilis [14] = experiment: Antibacterial activity against Bacillus subtilis MTCC 441 at 1000 ug/ml after 18 hr by cup plate method; conditions: MTCC 441, 18 h, read-out: DIZ
Bacillus subtilis [15] = experiment: Antibacterial activity against Bacillus subtilis MTCC 441 at 1500 ug/ml after 18 hr by cup plate method; conditions: MTCC 441, 18 h, read-out: DIZ
Bacillus subtilis [16] = experiment: Antibacterial activity against Bacillus subtilis MTCC 441 at 500 ug/ml after 18 hr by cup plate method; conditions: MTCC 441, 18 h, read-out: DIZ
Bacillus subtilis [17] = experiment: Antibacterial activity against Bacillus subtilis MTCC 441 at 200 ug/ml after 18 hr by cup plate method; conditions: MTCC 441, 18 h, read-out: DIZ
Bacillus subtilis [18] = experiment: Antibacterial activity against Bacillus subtilis MTCC 441 at 100 ug/ml after 18 hr by cup plate method; conditions: MTCC 441, 18 h, read-out: DIZ
Staphylococcus aureus [19] = experiment: Antibacterial activity against Staphylococcus aureus MTCC 1430 at 1500 ug/ml after 18 hr by cup-plate method; conditions: MTCC 1430, 18 h, read-out: DIZ
Staphylococcus aureus [20] = experiment: Antibacterial activity against Staphylococcus aureus MTCC 1430 at 1000 ug/ml after 18 hr by cup-plate method; conditions: MTCC 1430, 18 h, read-out: DIZ
Staphylococcus aureus [21] = experiment: Antibacterial activity against Staphylococcus aureus MTCC 1430 at 500 ug/ml after 18 hr by cup-plate method; conditions: MTCC 1430, 18 h, read-out: DIZ
Staphylococcus aureus [22] = experiment: Antibacterial activity against Staphylococcus aureus MTCC 1430 at 200 ug/ml after 18 hr by cup-plate method; conditions: MTCC 1430, 18 h, read-out: DIZ
Staphylococcus aureus [23] = experiment: Antibacterial activity against Staphylococcus aureus MTCC 1430 at 100 ug/ml after 18 hr by cup-plate method; conditions: MTCC 1430, 18 h, read-out: DIZ
Penicillium chrysogenum = experiment: Antifungal activity against Penicillium chrysogenum MTCC 161 after 24 hr by broth dilution method; conditions: MTCC 161, 24 h
Aspergillus niger = experiment: Antifungal activity against Aspergillus niger MTCC 2546 after 24 hr by broth dilution method; conditions: MTCC 2546, 24 h
Escherichia coli = experiment: Antibacterial activity against Escherichia coli MTCC 1573 after 24 hr by broth dilution method; conditions: MTCC 1573, 24 h
Pseudomonas fluorescens = experiment: Antibacterial activity against Pseudomonas fluorescens MTCC 2421 after 24 hr by broth dilution method; conditions: MTCC 2421, 24 h

## O=c1c(/C=N/c2nc[nH]n2)coc2ccccc12
Pseudomonas aeruginosa [1]
  zone of inhibition at 500 µg/mL: 16 mm
Pseudomonas aeruginosa [2]
  zone of inhibition at 200 µg/mL: 15 mm
Pseudomonas aeruginosa [3]
  zone of inhibition at 100 µg/mL: 14 mm
Micrococcus luteus [4]
  zone of inhibition at 1500 µg/mL: 23 mm
Micrococcus luteus [5]
  zone of inhibition at 1000 µg/mL: 18 mm
Micrococcus luteus [6]
  zone of inhibition at 500 µg/mL: 16 mm
Micrococcus luteus [7]
  zone of inhibition at 200 µg/mL: 15 mm
Micrococcus luteus [8]
  zone of inhibition at 100 µg/mL: 11 mm
Bacillus pumilus [9]
  zone of inhibition at 1500 µg/mL: 21 mm
Bacillus pumilus [10]
  zone of inhibition at 1000 µg/mL: 19 mm
Bacillus pumilus [11]
  zone of inhibition at 500 µg/mL: 17 mm
Bacillus pumilus [12]
  zone of inhibition at 200 µg/mL: 16 mm
Bacillus pumilus [13]
  zone of inhibition at 100 µg/mL: 14 mm
Bacillus subtilis [14]
  zone of inhibition at 1000 µg/mL: 18 mm
Bacillus subtilis [15]
  zone of inhibition at 1500 µg/mL: 20 mm
Bacillus subtilis [16]
  zone of inhibition at 500 µg/mL: 17 mm
Bacillus subtilis [17]
  zone of inhibition at 200 µg/mL: 16 mm
Bacillus subtilis [18]
  zone of inhibition at 100 µg/mL: 12 mm
Staphylococcus aureus [19]
  zone of inhibition at 1500 µg/mL: 19 mm
Staphylococcus aureus [20]
  zone of inhibition at 1000 µg/mL: 17 mm
Staphylococcus aureus [21]
  zone of inhibition at 500 µg/mL: 14 mm
Staphylococcus aureus [22]
  zone of inhibition at 200 µg/mL: 13 mm
Staphylococcus aureus [23]
  zone of inhibition at 100 µg/mL: 11 mm
Penicillium chrysogenum
  MIC: 200 µg/mL (≈ 833 µM)
Aspergillus niger
  MIC: 200 µg/mL (≈ 833 µM)
Escherichia coli
  MIC: 400 µg/mL (≈ 1670 µM)
Pseudomonas fluorescens
  MIC: 200 µg/mL (≈ 833 µM)
